Calls of active or inactive are those of the source. The calls are words filed in the database; no cut-off is given here. Where a SMILES comes first, the peptide text is derived from it. The star is where a group is joined. Cbz = O=C(OCc1ccccc1)*

Series [1] in a line: Inhibition of proteasome-mediated NRF2 degradation in human HeLa cells assessed as increase in NRF2 level at 10 uM measured after 6 hrs by Western blotting analysis. It is filed as toxicity, cell-based.
For series [2], the system named is HeLa. The experiment in a line: Protection against erastin-induced ferroptosis in human HeLa cells assessed as reduction in cell death. It is filed as functional, cell-based.
The target of series [3] is T1, Keap1/Nrf2 (Homo sapiens) (UniProt Q16236+Q14145). The experiment in a line: Inhibition of KEAP1 BTB domain-NRF2 protein-protein interaction in human HeLa cells assessed as upregulation of NRF2 mRNA expression at 20 to 40 uM measured after 8 hrs by RT-PCR analysis. The format is cell-based. The settings on record: dose 20-40 µM.
Series [4] has as its target T1, Keap1/Nrf2 (Homo sapiens). Kind of series: Inhibition of KEAP1 BTB domain-NRF2 protein-protein interaction in human HeLa cells assessed as upregulation of NQO1 mRNA expression at 20 uM measured after 8 hrs by RT-PCR analysis. It is filed as cell-based.
Series [5] has as its target T1, Keap1/Nrf2 (Homo sapiens). Kind of series: Inhibition of KEAP1 BTB domain-NRF2 protein-protein interaction in human NCI-H1299 cells assessed as upregulation of p-62 expression at 1.25 to 20 uM measured after 18 hrs by Western blot analysis. It is filed as cell-based. The settings on record: dose 1.25-20 µM. (In general: A western blot detects proteins with antibodies after separation by electrophoresis.)

Series [6] has as its system HeLa. Kind of series: Effect on KEAP1 mRNA expression level in human HeLa cells at 20 to 40 uM measured after 4 to 8 hrs by RT-PCR analysis. It is filed as functional, cell-based. The settings on record: dose 20-40 µM, time 4-8 hrs.
Series [7] deals with T1, Keap1/Nrf2 (Homo sapiens). The experiment in a line: Inhibition of KEAP1 BTB domain-NRF2 protein-protein interaction in human HeLa cells assessed as upregulation of HO-1 level at 10 uM measured after 8 to 24 hrs by Western blotting analysis. It is filed as cell-based. The settings on record: time 8-24 hrs.
For series [8], the target named is T1, Keap1/Nrf2 (Homo sapiens). The experiment in a line: Inhibition of KEAP1 BTB domain-NRF2 protein-protein interaction in human HeLa cells assessed as upregulation of HO-1 mRNA expression at 20 uM measured after 4 to 8 hrs by RT-PCR analysis. The format is cell-based. To be noted: time 4-8 hrs.
Series [9] deals with T1, Keap1/Nrf2 (Homo sapiens). The experiment in a line: Inhibition of KEAP1 BTB domain-NRF2 protein-protein interaction in human NCI-H1299 cells assessed as upregulation of GCSc expression at 1.25 to 20 uM measured after 18 hrs by Western blot analysis. To be noted: dose 1.25-20 µM. The format is cell-based.
Series [10] has as its system HeLa. Kind of series: Cytotoxicity against human HeLa cells at 40 uM. It is filed as toxicity, cell-based.
For series [11], the target named is T1, Keap1/Nrf2 (Homo sapiens). The experiment in a line: Inhibition of KEAP1 BTB domain-NRF2 protein-protein interaction in human HCT-116 cells assessed as upregulation of NRF2 level at 2.5 to 40 uM measured after 18 hrs by Western blotting analysis. It is filed as cell-based. The settings on record: dose 2.5-40 µM.
The subject of series [12] is NCI-H1299. The experiment in a line: Protection against RSL3-induced ferroptosis in human NCI-H1299 cells at 5 to 10 uM preincubated for 6 hrs followed by RSL3 addition and measured after 18 hrs by crystal violet staining based assay. It is filed as functional, cell-based. The settings on record: dose 5-10 µM, time 24.0 hrs.
The target of series [13] is T1, Keap1/Nrf2 (Homo sapiens). Kind of series: Inhibition of KEAP1 BTB domain-NRF2 protein-protein interaction in human NCI-H1299 cells assessed as increase in nuclear localization of NRF2 at 20 uM measured after 18 hrs by immunostaining based microscopic analysis. It is filed as cell-based.
Series [14] deals with Kelch-like ECH-associated protein 1 (Homo sapiens) (UniProt Q14145). The experiment in a line: Binding affinity to KEAP1 in human HCT-116 cells assessed as appearance of high molecular weight bands of modified KEAP1 at 2.5 to 40 uM measured after 18 hrs by Western blotting analysis. It is filed as cell-based. To be noted: dose 2.5-40 µM.
In series [15] the target is T1, Keap1/Nrf2 (Homo sapiens). The experiment in a line: Inhibition of KEAP1 BTB domain-NRF2 protein-protein interaction in human HeLa cells assessed as upregulation of HO-1 level at 40 uM measured after 18 hrs by Western blotting analysis. It is filed as cell-based.
The target in series [16] is T1, Keap1/Nrf2 (Homo sapiens). Kind of series: Inhibition of KEAP1 BTB domain-NRF2 protein-protein interaction in human HeLa cells assessed as upregulation of NRF2 level at 10 uM measured after 8 to 24 hrs by Western blotting analysis. The format is cell-based. To be noted: time 8-24 hrs.
For series [17], the system named is NCI-H1299. Kind of series: Protection against RSL3-induced ferroptosis in human NCI-H1299 cells assessed as reduction in cell death at 5 to 10 uM preincubated for 6 hrs followed by RSL3 addition and measured after 18 hrs by morphological analysis. It is filed as functional, cell-based. The settings on record: dose 5-10 µM, time 24.0 hrs.
Series [18] addresses Kelch-like ECH-associated protein 1 (Homo sapiens) (UniProt Q14145). Kind of series: Binding affinity to KEAP1 in human HeLa cells assessed as appearance of high molecular weight bands of modified KEAP1 at 10 uM measured after 4 to 24 hrs by Western blotting analysis. It is filed as cell-based. To be noted: time 4-24 hrs.
Series [19] relates to HCT-116. Kind of series: Cytotoxicity against human HCT-116 cells at 40 uM. The format is toxicity, cell-based. To be noted: hct-116, 40 µM.
Series [20] addresses T1, Keap1/Nrf2 (Homo sapiens). Kind of series: Inhibition of KEAP1 BTB domain-NRF2 protein-protein interaction in human HeLa cells assessed as upregulation of NRF2 mRNA expression at 20 to 40 uM measured after 4 hrs by RT-PCR analysis. The format is cell-based. To be noted: dose 20-40 µM.
Series [21] addresses T1, Keap1/Nrf2 (Homo sapiens). The experiment in a line: Inhibition of KEAP1 BTB domain-NRF2 protein-protein interaction in human NCI-H1299 cells assessed as upregulation of HO-1 expression at 1.25 to 20 uM measured after 6 hrs by Western blot analysis. The format is cell-based. The settings on record: dose 1.25-20 µM.
Series [22] deals with T1, Keap1/Nrf2 (Homo sapiens). The experiment in a line: Inhibition of KEAP1 BTB domain-NRF2 protein-protein interaction in human NCI-H1299 cells assessed as upregulation of SLC7A11 expression at 1.25 to 20 uM measured after 18 hrs by Western blot analysis. The format is cell-based. The settings on record: dose 1.25-20 µM.
Series [23] addresses T1, Keap1/Nrf2 (Homo sapiens). The experiment in a line: Inhibition of KEAP1 BTB domain-NRF2 protein-protein interaction in human HeLa cells assessed as upregulation of NRF2 level at 5 to 40 uM measured after 18 hrs by Western blotting analysis. It is filed as cell-based. The settings on record: dose 5-40 µM.
For series [24], the target named is T1, Keap1/Nrf2 (Homo sapiens). Kind of series: Inhibition of KEAP1 BTB domain-NRF2 protein-protein interaction in human HeLa cells assessed as upregulation of NQO1 mRNA expression at 40 uM measured after 4 to 8 hrs by RT-PCR analysis. The settings on record: time 4-8 hrs. The format is cell-based.
Series [25] deals with T1, Keap1/Nrf2 (Homo sapiens). The experiment in a line: Inhibition of KEAP1 BTB domain-NRF2 protein-protein interaction in human HeLa cells assessed as upregulation of p-62 mRNA expression at 20 to 40 uM measured after 8 hrs by RT-PCR analysis. The format is cell-based. To be noted: dose 20-40 µM.
The test system of series [26] is NCI-H1299. Kind of series: Protection against RSL3-induced ferroptosis in human NCI-H1299 cells at 10 uM preincubated for 6 hrs followed by RSL3 addition and measured after 18 hrs by phase contrast microscopy. It is filed as functional, cell-based.
Series [27] addresses T1, Keap1/Nrf2 (Homo sapiens). Kind of series: Inhibition of KEAP1-NRF2 protein-protein interaction in human HeLa cells assessed as increase in NRF2 level at 50 uM measured after 6 hrs by Western blotting analysis. The format is cell-based.
For series [28], the target named is T1, Keap1/Nrf2 (Homo sapiens). The experiment in a line: Inhibition of KEAP1 BTB domain-NRF2 protein-protein interaction in human HeLa cells assessed as increase in NRF2 level at 50 nM measured after 6 hrs by Western blotting analysis. The format is cell-based.
Series [29] concerns A549. The experiment in a line: Inhibition of KEAP1 mutant-NRF2 protein-protein interaction in human A549 cells assessed as upregulation of NRF2 level at 2.5 to 20 uM measured after 18 hrs by Western blotting analysis. It is filed as cell-based. The settings on record: dose 2.5-20 µM.
Series [30] has as its target T1, Keap1/Nrf2 (Homo sapiens). The experiment in a line: Inhibition of KEAP1 BTB domain-NRF2 protein-protein interaction in human HeLa cells assessed as upregulation of HO-1 level at 5 uM measured after 18 hrs by Western blotting analysis. The format is cell-based.
The test system of series [31] is HCT-116. Kind of series: Cytotoxicity against human HCT-116 cells at >20 uM. To be noted: hct-116, 20 µM. It is filed as toxicity, cell-based.
For series [32], the target named is T1, Keap1/Nrf2 (Homo sapiens). Kind of series: Inhibition of KEAP1 BTB domain-NRF2 protein-protein interaction in human HeLa cells assessed as upregulation of NRF2 level at 2.5 uM measured after 18 hrs by Western blotting analysis. It is filed as cell-based.
The test system of series [33] is A549. The experiment in a line: Inhibition of KEAP1 mutant-NRF2 protein-protein interaction in human A549 cells assessed as upregulation of HO-1 level at 2.5 to 20 uM measured after 18 hrs by Western blotting analysis. It is filed as cell-based. The settings on record: dose 2.5-20 µM.
The target of series [34] is T1, Keap1/Nrf2 (Homo sapiens). The experiment in a line: Inhibition of KEAP1 BTB domain-NRF2 protein-protein interaction in human HCT-116 cells assessed as upregulation of NRF2 level at 2.5 to 20 uM measured after 18 hrs by Western blotting analysis. It is filed as cell-based. To be noted: dose 2.5-20 µM.

T1 sequence (Q14145 whole entry, looked up, the tested form may be a part): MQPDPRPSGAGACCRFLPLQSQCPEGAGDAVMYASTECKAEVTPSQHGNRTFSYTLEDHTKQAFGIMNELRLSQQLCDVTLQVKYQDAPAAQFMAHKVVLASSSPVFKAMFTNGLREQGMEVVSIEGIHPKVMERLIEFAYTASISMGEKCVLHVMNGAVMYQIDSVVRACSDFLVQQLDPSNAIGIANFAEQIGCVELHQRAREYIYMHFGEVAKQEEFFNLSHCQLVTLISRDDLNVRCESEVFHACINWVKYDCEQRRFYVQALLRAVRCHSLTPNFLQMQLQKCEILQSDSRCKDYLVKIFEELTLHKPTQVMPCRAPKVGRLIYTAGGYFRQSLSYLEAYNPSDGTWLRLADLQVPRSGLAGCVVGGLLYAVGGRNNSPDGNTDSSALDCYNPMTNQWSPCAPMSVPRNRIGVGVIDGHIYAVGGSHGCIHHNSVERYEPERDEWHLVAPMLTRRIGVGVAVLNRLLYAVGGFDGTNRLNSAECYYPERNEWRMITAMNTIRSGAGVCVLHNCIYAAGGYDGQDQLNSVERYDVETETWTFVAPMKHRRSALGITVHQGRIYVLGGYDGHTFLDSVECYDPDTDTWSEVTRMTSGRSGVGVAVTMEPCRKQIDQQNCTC
T1 sequence (Q16236 whole entry, looked up, the tested form may be a part): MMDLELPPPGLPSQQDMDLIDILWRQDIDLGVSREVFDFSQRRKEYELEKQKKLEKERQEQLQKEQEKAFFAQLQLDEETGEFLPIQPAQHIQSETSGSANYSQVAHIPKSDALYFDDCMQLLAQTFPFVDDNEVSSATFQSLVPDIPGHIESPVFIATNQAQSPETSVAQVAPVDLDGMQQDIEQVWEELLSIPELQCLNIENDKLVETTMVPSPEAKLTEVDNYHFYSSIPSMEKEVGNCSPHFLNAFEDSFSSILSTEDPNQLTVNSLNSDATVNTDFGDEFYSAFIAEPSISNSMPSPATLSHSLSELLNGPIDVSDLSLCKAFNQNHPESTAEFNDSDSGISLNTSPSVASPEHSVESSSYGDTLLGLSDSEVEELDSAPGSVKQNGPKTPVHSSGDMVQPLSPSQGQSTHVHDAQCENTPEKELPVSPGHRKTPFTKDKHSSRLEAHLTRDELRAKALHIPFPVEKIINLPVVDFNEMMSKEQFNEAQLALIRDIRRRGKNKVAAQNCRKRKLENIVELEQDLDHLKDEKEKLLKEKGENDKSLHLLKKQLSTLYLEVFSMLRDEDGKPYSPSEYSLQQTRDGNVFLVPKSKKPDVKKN
Kelch-like ECH-associated protein 1 (Homo sapiens), sequence (Q14145 whole entry, the tested form may be a part): as the sequence (Q14145 whole entry, looked up, the tested form may be a part) above

`CC(C)C[C@@H](C=O)NC(=O)[C@H](CC(C)C)NC(=O)[C@H](CC(C)C)NC(=O)OCc1ccccc1` [MG-132] (Cbz-Leu-Leu-Leu-aldehyde): in [1], the “inhibition (INH)” value is listed as “Active”.

As for `CC1=C2C(CCS2(=O)=O)c2c(c(O)c3ccccc3c2O)C1` (centres undefined), the result (in the series on HeLa [2]; in [14]; in series [18]) was Active. Further, the inhibition result in series [3], in series [4], in series [5], in series [9], in series [13] and in series [21] was “Active” each time. In addition, the inhibition entry in series [22] is “Active”. Also, the result with HeLa [6] was inactive. In addition, the inhibition result in [7] is given as “Active; Most Efficient Effect Was Observed After 8 Hrs”; in series [8], “Active; Significant Changes Observed”; in series [11], “Active; Stronger Activation Of Nrf2 Observed”; in series [15], “Active; Most Efficiently Upregulated The Ho-1 Level At 40 Um”; in series [16] it was “Active; Most Efficient Effect Was Observed After 8 Hrs”; in series [23], “Active; Stronger Activation Of Nrf2 Observed”. Also, the inhibition entry in series [24] is on record as “Active; Highly Upregulated”; in series [25] it was “Active; Significant Upregulation Observed”. Moreover, the Activity result with HeLa [10] was “Non-toxic”; in the series on NCI-H1299 [12] it was “Active; Almost Complete Protection Observed”; in the series on NCI-H1299 [17], “Active; Almost Complete Protection Observed”; with HCT-116 [19] it was “Non-toxic”; in the series on NCI-H1299 [26], “Active; Slightly More Profound Effect Observed At 10 Um”. Also, the inhibition result in [20] is “inactive”.

In the case of `CC(C)(C)c1cc(O)ccc1O`, the inhibition entry in series [27] was “Active”.

For the compound `CC1(C)CC[C@]2(C(=O)O)CC[C@]3(C)[C@H](C(=O)C=C4[C@@]5(C)C=C(C#N)C(=O)C(C)(C)[C@@H]5CC[C@]43C)[C@@H]2C1`, in [28], the inhibition entry was “Active”.

Regarding `CC1=C2C(CCS2(=O)=O)c2c(O)ccc(O)c2C1` (centres undefined), the inhibition entry in the series on A549 [29] and in the series on A549 [33] was “inactive” in each case. Also, the inhibition entry in [30] and in [32] was “Active” in each case. The Activity entry with HCT-116 [31] is “Toxic”. The inhibition entry in [34] is given as “Active; Upregulated Nrf2 To A Lesser Degree”.

(Values after ChEMBL document CHEMBL6114945, “Cyclic vinyl sulfones activate NRF2 to protect from oxidative stress-induced programmed necrosis” (Bioorg Med Chem Lett, 2025).)
